Active and inactive are the calls of the source. The calls are words filed in the database; no cut-off is given here.
What was measured:
[1] = target: Acetylcholinesterase (Electrophorus electricus) (UniProt O42275); assay: (§1) Inhibition of electric eel AChE by Ellman's method
Acetylcholinesterase = Acetylcholinesterase (Electrophorus electricus, UniProt O42275); assay: as §1; details: read-out: I50
Acetylcholinesterase, sequence (O42275 whole entry): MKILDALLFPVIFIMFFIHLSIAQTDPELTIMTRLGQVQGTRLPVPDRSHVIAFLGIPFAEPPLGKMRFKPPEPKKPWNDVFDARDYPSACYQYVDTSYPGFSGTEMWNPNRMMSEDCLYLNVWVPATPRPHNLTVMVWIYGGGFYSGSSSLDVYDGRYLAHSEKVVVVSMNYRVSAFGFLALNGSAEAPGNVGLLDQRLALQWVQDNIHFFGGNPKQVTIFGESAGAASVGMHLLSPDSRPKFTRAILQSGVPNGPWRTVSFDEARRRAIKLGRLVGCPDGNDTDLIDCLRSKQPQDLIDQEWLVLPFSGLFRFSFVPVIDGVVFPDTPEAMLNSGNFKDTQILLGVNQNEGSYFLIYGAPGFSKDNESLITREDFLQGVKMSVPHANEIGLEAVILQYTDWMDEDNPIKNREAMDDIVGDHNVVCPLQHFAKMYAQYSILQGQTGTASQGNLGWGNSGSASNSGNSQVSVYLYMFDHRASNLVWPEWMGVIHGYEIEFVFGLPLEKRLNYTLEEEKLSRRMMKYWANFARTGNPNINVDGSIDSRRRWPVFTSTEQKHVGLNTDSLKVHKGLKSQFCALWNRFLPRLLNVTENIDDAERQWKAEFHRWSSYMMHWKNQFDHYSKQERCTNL

Acetylcholinesterase (Electrophorus electricus), sequence (O42275 24-633 limits assumed): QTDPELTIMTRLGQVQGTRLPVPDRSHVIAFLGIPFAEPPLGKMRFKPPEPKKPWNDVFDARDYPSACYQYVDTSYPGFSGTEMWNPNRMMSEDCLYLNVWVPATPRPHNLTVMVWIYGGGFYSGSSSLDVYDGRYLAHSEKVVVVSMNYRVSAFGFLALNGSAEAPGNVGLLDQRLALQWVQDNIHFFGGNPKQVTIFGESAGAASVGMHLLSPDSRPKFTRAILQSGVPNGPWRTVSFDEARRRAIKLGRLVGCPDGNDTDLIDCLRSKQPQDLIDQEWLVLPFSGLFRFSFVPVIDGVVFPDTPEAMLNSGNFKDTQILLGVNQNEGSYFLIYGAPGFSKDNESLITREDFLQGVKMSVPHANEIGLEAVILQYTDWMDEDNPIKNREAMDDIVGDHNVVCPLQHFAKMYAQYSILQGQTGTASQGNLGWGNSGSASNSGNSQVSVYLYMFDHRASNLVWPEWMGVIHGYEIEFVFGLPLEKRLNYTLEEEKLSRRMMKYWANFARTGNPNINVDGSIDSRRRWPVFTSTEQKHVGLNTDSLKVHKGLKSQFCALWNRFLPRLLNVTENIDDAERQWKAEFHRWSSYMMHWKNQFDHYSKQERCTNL

COc1cc(CCC2=C(C(=O)O)C[C@]3(O)[C@@]4(C)C(=O)CCC(C)(C)[C@]4(O)CC[C@@]3(C)O2)cc(OC)c1OC was tested, and the Activity [1] was “inactive”.

In the case of COc1cc(-c2cc3c(c(=O)o2)C[C@]2(O)[C@@]4(C)[C@H](O)C=CC(C)(C)[C@]4(O)CC[C@@]2(C)O3)cc(OC)c1OC [1-DIHYDROTERRITREM B], the IC50 (Acetylcholinesterase) is reported as 79000 nM.

In the case of COc1cc(-c2cc3c(c(=O)o2)C[C@]2(O)[C@@]4(C)C(=O)CCC(C)(C)[C@]4(O)CC[C@@]2(C)O3)cc(OC)c1OC [2,3-DIHYDROTERRITREM B], the IC50 (Acetylcholinesterase) is reported as 2200 nM.

COc1cc(-c2cc3c(c(=O)o2)C[C@]2(O)[C@@]4(C)C(=O)[C@H]5O[C@H]5C(C)(C)[C@]4(O)CC[C@@]2(C)O3)cc(OC)c1OC [2,3-EPOXYTERRITREM B] showed an IC50 (Acetylcholinesterase) of 170 nM.

COc1cc(-c2cc3c(c(=O)o2)C[C@]2(O)[C@@]4(C)C(=O)C=C[C@](C)(CI)[C@]4(O)CC[C@@]2(C)O3)cc(OC)c1OC [4BETA-IODOMETHYL-4BETA-DEMETHYL-TERRITREM B] was tested, and the IC50 (Acetylcholinesterase) was 290 nM.

For COc1cc(-c2cc3c(c(=O)o2)C[C@]2(O)[C@@]4(C)C(=O)C=CC(C)(C)[C@]4(O)CC[C@@]2(C)O3)cc(OC)c1OC [TERRITREM B], the IC50 (Acetylcholinesterase) was 260 nM and the inhibition ([1]; concentration not given here) was 50%.

Reference: ChEMBL document CHEMBL1159256, “Acetylcholinesterase inhibition by territrem B derivatives” (J Nat Prod, 1995)
